“And” between values parts separate entries of the source, which are not always exact repeats. Equal entries are not always repeated. “Also recorded” adds a separate entry of the source. Blank lines part the entries; values can stand above or below the compound they belong to.
Columns and labels:
recombinant human SIRT1 = biological target: T1, recombinant human SIRT1 (Homo sapiens, UniProt Q96EB6); assay: SIRT1 fluorescent deacetylation assay (p53-382 acetylated peptide); type: biochemical; conditions: for SIRT1 stimulating activity (in words): 25 μM NAD+, 25 μM p53-382 acetylated peptide, compounds at 100 μM
T1 sequence (Q96EB6 1-747): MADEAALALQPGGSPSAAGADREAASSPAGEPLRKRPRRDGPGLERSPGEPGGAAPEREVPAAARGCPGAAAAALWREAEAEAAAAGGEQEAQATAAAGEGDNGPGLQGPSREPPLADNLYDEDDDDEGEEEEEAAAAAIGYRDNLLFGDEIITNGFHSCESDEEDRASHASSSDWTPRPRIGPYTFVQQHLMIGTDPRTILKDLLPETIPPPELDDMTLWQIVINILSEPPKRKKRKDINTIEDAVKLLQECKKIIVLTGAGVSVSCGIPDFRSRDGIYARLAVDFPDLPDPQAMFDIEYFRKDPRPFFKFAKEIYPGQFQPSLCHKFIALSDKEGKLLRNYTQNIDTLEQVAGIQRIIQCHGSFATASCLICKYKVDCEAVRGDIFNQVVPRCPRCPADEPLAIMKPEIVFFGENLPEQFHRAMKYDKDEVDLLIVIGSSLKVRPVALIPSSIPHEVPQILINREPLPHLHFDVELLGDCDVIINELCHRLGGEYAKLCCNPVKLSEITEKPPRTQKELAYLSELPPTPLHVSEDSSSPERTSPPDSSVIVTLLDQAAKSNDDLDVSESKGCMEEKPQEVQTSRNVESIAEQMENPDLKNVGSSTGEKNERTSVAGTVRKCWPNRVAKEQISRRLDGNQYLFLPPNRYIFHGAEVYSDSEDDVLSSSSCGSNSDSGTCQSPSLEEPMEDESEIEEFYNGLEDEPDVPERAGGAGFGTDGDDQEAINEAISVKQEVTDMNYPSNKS
Text: Lines represent non-linear least-squares fits to the Michaelis-Menten equation. […] Lines represent non-linear least-squares fits to the Michaelis-Menten equation. […] Error bars are standard errors of the mean.
To identify compounds that modulate SIRT1 activity, a number of small molecule libraries were screened using a fluorescent deacetylation assay in 96-well plates^26. The substrate used in the assay was a fluorogenic peptide based on the sequence encompassing the p53-K382 acetylation site, a known target of SIRT1 in vivo^20,21,27. […] The small molecule libraries included analogues of nicotinamide, ε-acetyl lysine, NAD^+, nucleotides, nucleotide analogues and purinergic ligands.
His6-tagged recombinant SIRT1 and GST-tagged recombinant Sir2 were prepared as previously described^26. From 0.1 to 1 μg of SIRT1 and 1.5 μg of Sir2 were used per deacetylation assay (in 50 μl total reaction) as previously described^26.
Themed compound libraries (BIOMOL) were used for primary and secondary screening. Most polyphenol compounds were dissolved at 10 mM in dimethylsulfoxide (DMSO) on the day of the assay. For water soluble compounds and negative controls, 1% v/v DMSO was added to the assay. […] Unless otherwise indicated all initial rate measurements were means of three or more replicates, obtained with single incubation times, at which point 5% or less of the substrate initially present had been deacetylated. Calculation of net fluorescence increases included subtraction of a blank value, which in the case of Sir2 was obtained by omitting the enzyme from the reaction and in the case of SIRT1 by adding an inhibitor (200 μM suramin or 1 mM nicotinamide) to the reaction prior to the acetylated substrate. […] All error bars represent the standard error of the mean.

HDAC = conditions: in vitro or in vivo, literature; cited from earlier work
Human 293 = assay: Survival of 293 cells; conditions: 50 micromolar
D. melanogaster = D. melanogaster lifespan; type: in vivo
Description: Females (a) and males (b) with loss-of-function genotype dSir2^4.5/dSir2^5.26. Females (c) and males (d) with strong hypomorphic genotype dSir2^17/dSir2^KG00871.
Survival assays were conducted independently with adult D. melanogaster in two laboratories. In the first laboratory, all trials used an yw marked wild-type strain. Larvae were reared on standard cornmeal-sugar-yeast (CSY) agar diet (cornmeal 5%, sucrose 10.5%, SAF yeast 2%, and agar 0.7%). Newly eclosed adults were placed in 1 L demography cages with approximately 75 males and 75 females. Three to four replicate 1 L demography cages were used for each treatment group in each trial. Every two days, dead flies were removed and scored, and food vials were replenished. Food vials contained cornmeal-sugar-yeast diet with SAF yeast as either 2% or 3% by weight. Test compounds in 100 μl of EtOH (or blank EtOH in controls) were mixed into melted aliquots of the adult food media to make a final concentration of 0, 10 or 100 μM. Fresh stock solutions and adult media were prepared weekly. In the second laboratory, lifespan trials were conducted with the wild type strain Canton-S, dSir2^4.5 and dSir2^5.26 (S. Smolik, University of Oregon), dSir2^17 (S. Astrom, Stockholm University, Sweden), and dSir2^KG00871 (Drosophila Stock Center, Bloomington, Ind.). Larvae for all tests were reared on standard cornmeal-sugar-yeast diet. Newly eclosed adults were incubated in plastic shell vials containing 5 ml of 15% sugar-yeast diet (15% SY) or 5% sugar-yeast (5% SY) diet (15% SY: 15% yeast, 15% sucrose, 2% agar; 5% SY: 5% yeast, 5% sucrose, 2% agar as per Ref. ^20). In all trials, ˜20 males with ˜20 females were placed into each of 10 vials/treatment group. Every two days, flies were passed into new vials and dead flies were counted. […] Final compound concentrations were 0, 10, 100 or 200 μM. Fresh stock solution and adult media was prepared weekly.

S. cerevisiae = assay: Yeast replicative lifespan; type: cell-based; conditions: for Average lifespan: 10 μM compound, 2% glucose medium, wild type untreated 22.9; for % change in yeast replicative lifespan relative to untreated organisms (10 μM): 2% (w/v) glucose YPD, untreated 100%
Description: Average lifespan for wild type, 22.9 generations, quercetin, 23.4; piceatannol. […]
All yeast strains were grown at 30° C. in complete yeast extract/bactopeptone, 2.0% (w/v) glucose (YPD) medium except where stated otherwise. Calorie restriction was induced in 0.5% glucose. Synthetic complete (SC) medium consisted of 1.67% yeast nitrogen base, 2% glucose, 40 mg/litre each of auxotrophic markers. SIR2 was integrated in extra copy and disrupted as described^5. Other strains are described elsewhere^26. For cellular deacetylation assays, HeLa S3 cells were used. U20S osteosarcoma and human embryonic kidney (HEK 293) cells were cultured adherently in Dulbecco's Modified Eagle's Medium (DMEM) containing 10% fetal calf serum (FCS) with 1.0% glutamine and 1.0% penecillin/streptomycin. HEK 293 overexpressing dominant negative SIRT1 H363Y was a gift of R. Frye (U. Pittsburgh).
Lifespan measurements were performed using PSY316AT MATα as previously described^35. All compounds for lifespan analyses were dissolved in 95% ethanol and plates were dried and used within 24 hours. Prior to lifespan analysis, cells were pre-incubated on their respective media for at least 15 hours. Following transfer to a new plate, cells were equilibrated on the medium for a minimum of 4 hours prior to micro-manipulating them. At least 30 cells were examined per experiment and each experiment was performed at least twice. Statistical significance of lifespan differences was determined using the Wilcoxon rank sum test. Differences are stated to be significant when the confidence is higher than 95%.

[1] = biological target: T2, SIRT1 deacetylase (BIOMOL) (Homo sapiens, UniProt Q96EB6); assay: High-throughput SIRT1 screening protocol (ICCB library); type: biochemical; conditions: positive controls; 200 μM NAD+, 5 μM Fluor de Lys-SIRT1; resveratrol 50 μM
T2 construct: purchased BIOMOL
T2 sequence (Q96EB6 1-747): T1 sequence (Q96EB6 1-747)
Description: The reaction mixture contains (final): 0.5 units/reaction SIRT1 deacetylase (BIOMOL); 200 μM NAD^+; 5 μM Fluor de Lys-SIRT1 substrate (BIOMOL); buffer (25 mM Tris/Cl, pH 8.0, 137 mM NaCl, 2.7 mM KCl, 1 mM MgCl2, and 1 mg/ml BSA). In addition, a reaction mixture containing no enzyme was made so that each well receiving compound has a corresponding “no enzyme control” well. Reactions were performed in black 384 well plates (NUNC) in a final volume of 25 μl/well.
The reactions were started by combining enzyme and substrate in a reaction mixture immediately prior to aliquoting in plates (or substrate only for “no enzyme control” plates). Mixture were aliquoted to plates using Biotek μfill (Biotek Instruments). Control mixtures were manually added to designated wells. A library compound was added at a desired concentration by pin transfer to both “with enzyme” and “no enzyme” plates. Compounds were added in at least triplicate (with enzyme reaction in duplicate and no enzyme controls) at a final concentration of roughly 50 μM. The plates were incubated at 37° C for 30-60 minutes. Then 25 μl of 1× Developer II (BIOMOL) plus 2 mM nicotinamide were added to all wells to stop the reactions. The reactions were left for at least 30 minutes at 37° C. for the signal to develop. The plates were read in a microplate-reading fluorometer capable of excitation at a wavelength in the range of 350-380 nm and detection of emitted light in the range of 440-460 nm. A read time of 0.1 sec per well was used.

SIRT1 Vmax decrease (recombinant human SIRT1; 50 μM nicotinamide, absence of resveratrol, NAD+ or acetylated peptide varied): 30% and 36%
Compound: NC(=O)c1cccnc1 [Nicotinamide, nicotinamide]

Compound: C/C=C1\NC(=O)[C@H]2CSSCC/C=C/[C@H](CC(=O)N[C@H](C(C)C)C(=O)N2)OC(=O)[C@H](C(C)C)NC1=O [Depsipeptide]
HDAC inhibition (in words) (HDAC): micromolar concentrations

Compound: CSc1ccc(/C=C/c2cc(O)cc(O)c2)cc1 [BML-230]
Survival of 293 cells (Human 293; 0 h): 100%
Survival of 293 cells (Human 293; 48 h): 55%
Survival of 293 cells (Human 293; 96 h): 57%
toxicity on 293 cells (in words) (Human 293; 96 hours): least toxic on 293 cells
v1/v2, ratio of BML-230-stimulated to resveratrol-stimulated SIRT1 rate (recombinant human SIRT1; R at 500 μM): ≤ 1.4
BML-230-stimulated SIRT1 activity compared with resveratrol (recombinant human SIRT1; dose response, 25 μM each NAD+ and p53-382 peptide, 20 min): exceeds that stimulated by resveratrol at all concentrations tested
dissociation constant of SIRT1/activator complex (comparison) (recombinant human SIRT1; inferred from two state model, FIG. 9b): lower dissociation constant than SIRT1/resveratrol

Compound: Cc1ccc(/C=C/c2cc(O)cc(O)c2)cc1 [BML-228]
Survival of 293 cells (Human 293; 0 h): 100%
Survival of 293 cells (Human 293; 48 h): 46%
Survival of 293 cells (Human 293; 96 h): 32%
SIRT1 stimulating activity (in words) (recombinant human SIRT1): did the least to decrease activity

Compound: O=c1c(O)c(-c2ccc(O)c(O)c2)oc2cc(O)ccc12 [fisetin, 3,7,3′,4′-Tetrahyddroxyflavone]
longevity on restricted diet (D. melanogaster; restricted diet): neither resveratrol nor fisetin further increased longevity
lifespan extended (maximum) (D. melanogaster; wild type Canton-S and yw, males and females, normal diet): up to 23%
increase of average lifespan (S. cerevisiae; 10 μM): 55%
maximum lifespan (in words) (S. cerevisiae; 10 μM): significantly increased maximum lifespan
Average lifespan (S. cerevisiae): 30.0 generations

Compound: 5,7,4′-Trihydroxyflavanone [genistein]
SIRT1 stimulating activity (in words) (recombinant human SIRT1): absence of activity

Compound: CCc1ccc(/C=C/c2cc(O)cc(O)c2)cc1 [BML-225]
Survival of 293 cells (Human 293; 0 h): 100%
Survival of 293 cells (Human 293; 48 h): 5%
Survival of 293 cells (Human 293; 96 h): 8%

Compound: O=C(/C=C/c1cccc(C(=O)NO)c1)NO [CBHA, m-carboxy-cinnamic acid bishydroxamic acid]
HDAC inhibition (in words) (HDAC): micromolar concentration or lower

SIRT1 stimulating activity (in words) (recombinant human SIRT1): abolished activity
Compound: O=C(Nc1cc(O)cc(O)c1)c1ccccc1 [BML-219, N-(3,5-Dihydroxyphenyl)benzamide]

Compound: trichostatin A [TSA]
HDAC inhibition (in words) (HDAC): potent inhibitor of mammalian HDAC

Compound: depudecin
HDAC inhibition (in words) (HDAC): micromolar concentrations

Compound: Oc1cc(O)cc(/C=C/c2ccc(F)cc2)c1 [BML-212, 3,5-Dihydroxy-4′-fluoro-trans-stilbene]
% change in yeast replicative lifespan relative to untreated organisms (10 μM) (S. cerevisiae; 10 μM): 98%

stimulated SIRT1 activity (recombinant human SIRT1; initial library screen, fluorogenic p53-K382 peptide (Table 1)): eight
Compound: Oc1cc(O)cc(/C=C/c2ccc(O)c(O)c2)c1 [piceatannol, 3,5,3′,4′-Tetrahydroxy-trans-stilbene]
effect on lifespan (in words) (S. cerevisiae; 10 μM): no significant effect on lifespan
Average lifespan (S. cerevisiae): 24.0 generations

Compound: Oc1cc(O)cc(/C=C/C2CCCCC2)c1 [BML-224]
SIRT1 stimulating activity (in words) (recombinant human SIRT1): nearly as detrimental to SIRT1 stimulating activity

Compound: Oc1cc(O)cc(/C=C/c2ccc(Cl)cc2)c1 [BML-217, 3,5-Dihydroxy-4′-chloro-trans-stilbene]
% change in yeast replicative lifespan relative to untreated organisms (10 μM) (S. cerevisiae; 10 μM): 90%
SIRT1 stimulating activity (in words) (recombinant human SIRT1): did the least to decrease activity; also recorded: did not significantly diminish the SIRT1 activating effect

activated SIRT1 [1]: 3.28 fold
SIRT1 stimulating activity (in words) (recombinant human SIRT1): did the least to decrease activity
Compound: Oc1cc(O)cc(/C=C/c2ccccc2)c1 [Pinosylvin, 3,5-Dihydroxy-trans-stilbene]
% change in yeast replicative lifespan relative to untreated organisms (10 μM) (S. cerevisiae; 10 μM): 114%
SIRT1 stimulating activity (in words) (recombinant human SIRT1; listed as pinosylvin): did not significantly diminish the SIRT1 activating effect

Compound: O=c1c(O)c(-c2ccc(O)c(O)c2)oc2cc(O)cc(O)c12 [quercetin, 3,5,7,3′,4′-Pentahydroxyflavone]
effect on lifespan (in words) (S. cerevisiae; 10 μM): no significant effect on lifespan
Average lifespan (S. cerevisiae): 23.4 generations
